Reference: patent US11613522B2, “Herbicidally active 3-phenylisoxazoline-5-carboxamides of tetrahydro- and dihydrofurancarboxamides” (BAYER AKTIENGESELLSCHAFT, priority 2017, dated 2023)

Tests used:
Assay type in all cases: in vivo
[1] = system: Polygonum convolvulus; assay: Pre-emergence herbicidal activity against POLCO; settings: dosage 80 g/ha, scored visually after about 3 weeks vs untreated controls; for pest or weed control at 80 g/ha: Fallopia convolvulus, 504 h
Source text: (§1) 1. Pre-emergence herbicidal action against harmful plants and crop plant compatibility Seeds of monocotyledonous and dicotyledonous weed plants and crop plants are placed in plastic or wood fiber pots and covered with soil. The compounds of the invention, formulated in the form of wettable powders (WP) or as emulsion concentrates (EC), are then applied onto the surface of the covering soil as aqueous suspension or emulsion with addition of 0.5% additive at a water application rate of 600 l/ha (converted). After the treatment, the pots are placed in a greenhouse and kept under good growth conditions for the trial plants. After about 3 weeks, the effect of the preparations is scored visually in comparison with untreated controls as percentages. For example, 100% activity=the plants have died, 0% activity=like control plants. [table]

[2] = system: Stellaria media; assay: Pre-emergence herbicidal activity against STEME; settings: dosage 80 g/ha, scored visually after about 3 weeks vs untreated controls
Source text: as §1

[3] = system: Alopecurus myosuroides; assay: Post-emergence herbicidal activity against ALOMY; settings: dosage 320 g/ha, rated visually after about 3 weeks; for pest or weed control at 320 g/ha: Alopecurus myosuroides, 504 h
Procedure: (§2) [table] Seeds of monocotyledonous and dicotyledonous weeds and crop plants are placed in sandy loam in plastic or wood-fiber pots, covered with soil and cultivated in a greenhouse under controlled growth conditions. 2 to 3 weeks after sowing, the test plants are treated at the one-leaf stage. The compounds of the invention, formulated in the form of wettable powders (WP) or as emulsion concentrates (EC), are then sprayed onto the green parts of the plants as aqueous suspension or emulsion with addition of 0.5% additive at a water application rate of 600 l/ha (converted). After the test plants had been kept in the greenhouse under optimum growth conditions for about 3 weeks, the activity of the preparations is rated visually in comparison to untreated controls. For example, 100% activity=the plants have died, 0% activity=like control plants.

[4] = system: Avena fatua; assay: Post-emergence herbicidal activity against AVEFA; settings: dosage 320 g/ha, rated visually after about 3 weeks; for pest or weed control at 320 g/ha: Avena fatua, 504 h
Procedure: as §2

[5] = system: Echinochloa crus-galli; assay: Post-emergence herbicidal activity against ECHCG; settings: dosage 320 g/ha, rated visually after about 3 weeks; for pest or weed control at 320 g/ha: Echinochloa crus-galli, 504 h
Procedure: as §2

[6] = system: Setaria viridis; assay: Post-emergence herbicidal activity against SETVI; settings: dosage 320 g/ha, rated visually after about 3 weeks; for pest or weed control at 320 g/ha: Setaria viridis, 504 h
Procedure: as §2

[7] = system: Amaranthus retroflexus; assay: Post-emergence herbicidal activity against AMARE; settings: dosage 320 g/ha, rated visually after about 3 weeks; for pest or weed control at 320 g/ha: Amaranthus retroflexus, 504 h
Procedure: as §2

[8] = system: Pharbitis purpurea; assay: Post-emergence herbicidal activity against PHBPU; settings: dosage 320 g/ha, rated visually after about 3 weeks; for pest or weed control at 320 g/ha: Ipomoea purpurea, 504 h
Procedure: as §2

[9] = system: Polygonum convolvulus; assay: Post-emergence herbicidal activity against POLCO; settings: dosage 320 g/ha, rated visually after about 3 weeks; for pest or weed control at 320 g/ha: Fallopia convolvulus, 504 h
Procedure: as §2

[10] = system: Stellaria media; assay: Post-emergence herbicidal activity against STEME; settings: dosage 320 g/ha, rated visually after about 3 weeks; for pest or weed control at 320 g/ha: Stellaria media, 504 h
Procedure: as §2

[11] = system: Viola tricolor; assay: Post-emergence herbicidal activity against VIOTR; settings: dosage 320 g/ha, rated visually after about 3 weeks; for pest or weed control at 320 g/ha: Viola tricolor, 504 h
Procedure: as §2

[12] = system: Veronica persica; assay: Post-emergence herbicidal activity against VERPE; settings: dosage 320 g/ha, rated visually after about 3 weeks; for pest or weed control at 320 g/ha: Veronica persica, 504 h
Procedure: as §2

[13] = system: Alopecurus myosuroides; assay: Pre-emergence herbicidal activity against ALOMY; settings: dosage 80 g/ha, scored visually after about 3 weeks vs untreated controls; for pest or weed control at 80 g/ha: Alopecurus myosuroides, 504 h
Source text: as §1

[14] = system: Veronica persica; assay: Pre-emergence herbicidal activity against VERPE; settings: dosage 80 g/ha
Source text: as §1

[15] = system: Avena fatua; assay: Pre-emergence herbicidal activity against AVEFA; settings: dosage 80 g/ha, scored visually after about 3 weeks vs untreated controls
Source text: as §1

[16] = system: Lolium rigidum; assay: Pre-emergence herbicidal activity against LOLRI; settings: dosage 80 g/ha, scored visually after about 3 weeks vs untreated controls
Source text: as §1

[17] = system: Setaria viridis; assay: Pre-emergence herbicidal activity against SETVI; settings: dosage 80 g/ha, scored visually after about 3 weeks vs untreated controls
Source text: as §1

[18] = system: Amaranthus retroflexus; assay: Pre-emergence herbicidal activity against AMARE; settings: dosage 80 g/ha, scored visually after about 3 weeks vs untreated controls
Source text: as §1

[19] = system: Viola tricolor; assay: Pre-emergence herbicidal activity against VIOTR; settings: dosage 80 g/ha, scored visually after about 3 weeks vs untreated controls
Source text: as §1

[20] = system: Hordeum murinum; assay: Pre-emergence herbicidal activity against HORMU; settings: dosage 80 g/ha
Source text: as §1

[21] = system: Lolium rigidum; assay: Post-emergence herbicidal activity against LOLRI; settings: dosage 320 g/ha, rated visually after about 3 weeks
Procedure: as §2

[22] = system: Abutilon theophrasti; assay: Post-emergence herbicidal activity against ABUTH; settings: dosage 320 g/ha, rated visually after about 3 weeks
Procedure: as §2

[23] = system: Hordeum murinum; assay: Post-emergence herbicidal activity against HORMU; settings: dosage 320 g/ha, rated visually after about 3 weeks
Procedure: as §2

Structure (SMILES) | pest or weed control at 320 g/ha [3] | pest or weed control at 320 g/ha [4] | pest or weed control at 320 g/ha [6] | pest or weed control at 320 g/ha [8] | pest or weed control at 320 g/ha [9] | pest or weed control at 320 g/ha [10] | pest or weed control at 320 g/ha [12] | Post-emergence herbicidal activity in % against ALOMY [3] | Post-emergence herbicidal activity in % against AVEFA [4] | Post-emergence herbicidal activity in % against ECHCG [5] | Post-emergence herbicidal activity in % against LOLRI [21] | Post-emergence herbicidal activity in % against SETVI [6] | Post-emergence herbicidal activity in % against ABUTH [22] | Post-emergence herbicidal activity in % against AMARE [7] | Post-emergence herbicidal activity in % against PHBPU [8] | Post-emergence herbicidal activity in % against POLCO [9] | Post-emergence herbicidal activity in % against STEME [10] | Post-emergence herbicidal activity in % against VIOTR [11] | Post-emergence herbicidal activity in % against VERPE [12] | Post-emergence herbicidal activity in % against HORMU [23] | further results
CC1(C(=O)N[C@@H]2CO[C@H](C(=O)N3CCCC3)C2)CC(c2cc(F)cc(F)c2)=NO1 (relative stereo) [Example I-03, 3-(3,5-difluorophenyl)-5-methyl-N-[cis-5-(pyrrolidine-1-carbonyl)tetrahydrofuran-3-yl]-4H-isoxazole-5-carboxamide] | 80% | 90% | 90% | 80% | 80% | 90% | 90% |  |  |  |  |  |  |  |  |  |  |  |  |  | pest or weed control at 80 g/ha [1]: 80%; pest or weed control at 80 g/ha ([2]; Stellaria media, 504 h): 80%; pest or weed control at 320 g/ha [5]: 80%; pest or weed control at 320 g/ha [7]: 80%; pest or weed control at 320 g/ha [11]: 80%
CC1(C(=O)N[C@@H]2CO[C@H](C(=O)NC3CC3)C2)CC(c2cc(F)cc(F)c2)=NO1 (relative stereo) [Example I-04, N-[cis-5-(cyclopropylcarbamoyl)tetrahydrofuran-3-yl]-3-(3,5-difluorophenyl)-5-methyl-4H-isoxazole-5-carboxamide] | 90% | 100% | 90% | 80% | 80% | 80% | 80% |  |  |  |  |  |  |  |  |  |  |  |  |  | pest or weed control at 80 g/ha [13]: 80%; pest or weed control at 80 g/ha [1]: 90%; pest or weed control at 320 g/ha [5]: 80%; pest or weed control at 320 g/ha [11]: 80%
C=CC1(C(=O)N[C@@H]2CO[C@H](C(=O)N3CCCC3)C2)CC(c2cc(F)cc(F)c2)=NO1 (relative stereo) [Example I-06, 3-(3,5-difluorophenyl)-N-[cis-5-(pyrrolidin-1-carbonyl)tetrahydrofuran-3-yl]-5-vinyl-4H-isoxazole-5-carboxamide] | 90% | 90% | 80% | 80% | 80% | 80% | 80% |  |  |  |  |  |  |  |  |  |  |  |  |  | pest or weed control at 320 g/ha [7]: 80%
CC1(C(=O)NC2COCC2C(=O)NC2CC2)CC(c2cc(F)cc(F)c2)=NO1 (centres unmarked) [Example I-08, N-[4-(cyclopropylcarbamoyl)tetrahydrofuran-3-yl]-3-(3,5-difluorophenyl)-5-methyl-4H-isoxazole-5-carboxamide] | 90% | 80% |  | 80% | 80% |  | 80% |  |  |  |  |  |  |  |  |  |  |  |  |  | pest or weed control at 80 g/ha [13]: 90%; pest or weed control at 80 g/ha ([14]; Veronica persica, 504 h): 90%
C=CC1(C(=O)NC2COC(C(=O)NC(C)CC(=O)OCC)C2)CC(c2cc(F)cc(F)c2)=NO1 (centres unmarked) [Example I-22] |  |  |  |  |  |  |  | 100% | 100% | 100% | 100% | 90% | 80% | 90% | 90% | 80% | 80% | 80% | 80% | 100% | Pre-emergence herbicidal activity in % against ALOMY [13]: 100%; Pre-emergence herbicidal activity in % against AVEVA (AVEFA) [15]: 100%; Pre-emergence herbicidal activity in % against LOLRI [16]: 100%; Pre-emergence herbicidal activity in % against SETVI [17]: 100%; Pre-emergence herbicidal activity in % against AMARE [18]: 100%; Pre-emergence herbicidal activity in % against POLCO [1]: 100%; Pre-emergence herbicidal activity in % against STEME [2]: 90%; Pre-emergence herbicidal activity in % against VIOTR [19]: 100%; Pre-emergence herbicidal activity in % against VERPE [14]: 100%; Pre-emergence herbicidal activity in % against HORMU [20]: 100%
C[C@]1(C(=O)N[C@@H]2CO[C@H](C(=O)NCc3ncc(C(F)(F)F)cc3Cl)C2)CC(c2cc(F)cc(F)c2)=NO1 [Example I-27] |  |  |  |  |  |  |  | 90% | 100% | 100% | 90% | 80% |  |  | 90% | 80% | 90% | 80% | 80% | 100% | Pre-emergence herbicidal activity in % against ALOMY [13]: 90%; Pre-emergence herbicidal activity in % against AVEVA (AVEFA) [15]: 80%; Pre-emergence herbicidal activity in % against STEME [2]: 90%
CCCS(=O)(=O)NC(=O)[C@@H]1C[C@H](NC(=O)[C@@]2(C)CC(c3cc(F)cc(F)c3)=NO2)CO1 [Example I-28] |  |  |  |  |  |  |  | 90% | 100% | 90% | 100% | 90% | 80% | 80% | 90% | 80% | 90% | 90% | 90% | 90% | 
C=C[C@]1(C(=O)N[C@@H]2CO[C@H](C(=O)NS(=O)(=O)CCC)C2)CC(c2cc(F)cc(F)c2)=NO1 [Example I-29] |  |  |  |  |  |  |  | 90% | 90% | 90% | 90% | 90% | 90% | 90% | 90% | 90% | 90% | 90% | 90% | 90% | 
